In patent US8283367B2, “Proteasome inhibitors and methods of using the same” (Cephalon, Inc., priority 2005, dated 2012):

melting point [°C] | SMILES
158 to 160 | Cc1ccc(C(=O)NC[C@H](NC(=O)c2cccc(-c3cccs3)n2)C(=O)N[C@@H](CC(C)C)B(O)O)cc1 [L.2.21]
232 to 236 | CC(C)C[C@H](NC(=O)[C@@H](NC(=O)c1cc(-c2ccccc2)n[nH]1)[C@@H](C)O)B(O)O [K.2.13, Boronic acid, [(1R)-1-[[(2S,3R)-3-hydroxy-2-[(5-phenyl-2H-pyrazole-3-carbonyl)amino]-1-oxobutyl]amino]-3-methylbutyl]]
220 to 222 | Cc1ccc(C(=O)NC[C@H](NC(=O)c2cccnc2)C(=O)N[C@@H](CC(C)C)B(O)O)cc1 [L.2.4, Boronic acid, [(1R)-1-[[(2 S)-3-[(4-methylbenzoyl)amino]-2-[(pyridine-3-carbonyl)amino]-1-oxopropyl]amino]-3-methyibutyl]]
235 to 237 | Cc1ccc(C(=O)NC[C@H](NC(=O)c2ccc3ccccc3n2)C(=O)N[C@@H](CC(C)C)B(O)O)cc1 [L.2.5, Boronic acid, [(1R)-1-[[(2 S)-3-[(4-methylbenzoyl)amino]-2-[(quinoline-2-carbonyl)amino]-1-oxopropyl]amino]-3-methylbutyl]]
190 to 195 | CC(C)C[C@H](NC(=O)[C@@H](NC(=O)c1ccc(-c2ccccc2)cn1)[C@@H](C)O)B(O)O [K.2.7, Boronic acid, [(1R)-1-[[(2S,3R)-3-hydroxy-2-[(5-phenyl-pyridine-2-carbonyl)amino]-1-oxobutyl]amino]-3-methylbutyl]]
135 to 140 | CC(C)C[C@H](NC(=O)[C@@H](NC(=O)c1cncc(-c2ccccc2)c1)[C@@H](C)O)B1O[C@@H]2C[C@@H]3C[C@@H](C3(C)C)[C@]2(C)O1 [H.2.6, 5-Phenyl-pyridine-3-carboxamide, N-[(1S,2R)-1-[[[(1R)-1-[(3aS,4S,6S,7aR)-hexahydro-3a,5,5-trimethyl-4,6-methano-1,3,2-benzodioxaborol-2-yl]-3-methylbutyl]amino]carbonyl]-2-hydroxypropyl]]
